# In patent US20230000808A1, “COMPOSITIONS AND METHODS EXCLUDING OR WITH REDUCED GLUTAMINE FOR THE TREATMENT OF HEMOGLOBINOPATHIES AND THALASSEMIAS” (AXCELLA HEALTH INC., priority 2019, published 2023):
# Test system: IL-6
# Assay: IL-6 in HLMVEC/TNF-α model (ELISA)
# Assay type: cell-based, human
# Conditions: for IL-6 expression relative to TNF Control, Mean % Change: HLMVEC/TNF-α model, 24 h, ELISA
# Experimental: Cells were incubated at 37° C., 5% CO2 in a humidified incubator. Cells were passaged at least 1-2 times in the complete growth medium every 2-3 days until ready to plate for cell culture studies. Once ready for experiment, HLMVECs were seeded at a density of 6K cells per well of the 96 well optical microplates (Thermofisher) in the complete growth medium described above and the plated cells were incubated for 24 hours at 37° C. in a humidified incubator with 5% CO2. […] The values are published in the Human Metabolome Database (Wishart D S, et al., Nucleic Acids Res. 2007 January; 35:[…]-6) which is hereby incorporated by reference in its entirety. The medium was also supplemented with growth factors & antibiotics from EGM2-MV kit (Lonza) except the kit-provided FBS which was substituted with dialyzed FBS (Hyclone). […] Human MCP-1 was measured by ELISA (Human […] DuoSet ELISA, R&D Systems) at 1/70 dilution in 1× Reagent Diluent (Reagent Ancillary Kit 2, R&D Systems). Samples were run in triplicates. […] Samples were run in triplicates. Mean percent change in cytokine levels relative to vehicle are reported herein. Statistical analysis was done using two sample t-test.
smiles,measurement,setting,value
"NC(=O)CC[C@H](N)C(=O)O [Glutamine, L-glutamine]","IL-6 expression relative to TNF Control, Mean % Change",TNF Conc 0.5 ng/mL,−1.168%
same,"IL-6 expression relative to TNF Control, Mean % Change",TNF Conc 25 ng/mL,14.3622%
same,lowering IL-6,either TNF-α group,largely ineffective
